Measurements as given in US8952024B2, “Herbicidal pyrimidone derivatives” (E I du Pont de Nemours and Company, priority 2009, dated 2015).

Columns and labels:
Assay type in all cases: in vivo
[1] = system: barnyardgrass (Echinochloa crus-galli); experiment: Test A pre-/postemergence plant response; conditions: for Barnyardgrass plant response rating: visual injury, 0 to 100 scale (0 no effect, 100 complete control), approx. ten days
Source text: (§1) Seeds of barnyardgrass (Echinochloa crus-galli), large crabgrass (Digitaria sanguinalis), giant foxtail (Setaria faberii), morningglory (Ipomoea spp.), pigweed (Amaranthus retroflexus), velvetleaf (Abutilon theophrasti), wheat (Triticum aestivum) and corn (Zea mays) were planted into a blend of loam soil and sand and treated preemergence with a directed soil spray using test chemicals formulated in a non-phytotoxic solvent mixture which included a surfactant. At the same time these species were also treated with postemergence applications of test compounds formulated in the same manner.
(§2) Plants ranged in height from two to ten cm and were in the one- to two-leaf stage for the postemergence treatment. Treated plants and untreated controls were maintained in a greenhouse for approximately ten days, after which time all treated plants were compared to untreated controls and visually evaluated for injury. Plant response ratings, summarized in Table A, are based on a 0 to 100 scale where 0 is no effect and 100 is complete control. A dash (-) response means no test result.

corn (Zea mays) = experiment: Test A pre-/postemergence plant response; conditions: for Corn plant response rating: visual injury, 0 to 100 scale (0 no effect, 100 complete control), approx. ten days
Source text: as §1, §2

[2] = system: giant foxtail (Setaria faberii); experiment: Test A pre-/postemergence plant response; conditions: for Foxtail, Giant plant response rating: visual injury, 0 to 100 scale (0 no effect, 100 complete control), approx. ten days
Source text: as §1, §2

[3] = system: large crabgrass (Digitaria sanguinalis); experiment: Test A pre-/postemergence plant response; conditions: for Crabgrass, Large plant response rating: visual injury, 0 to 100 scale (0 no effect, 100 complete control), approx. ten days
Source text: as §1, §2

[4] = system: morningglory (Ipomoea spp.); experiment: Test A pre-/postemergence plant response; conditions: for Morningglory plant response rating: visual injury, 0 to 100 scale (0 no effect, 100 complete control), approx. ten days
Source text: as §1, §2

[5] = system: pigweed (Amaranthus retroflexus); experiment: Test A pre-/postemergence plant response; conditions: for Pigweed plant response rating: visual injury, 0 to 100 scale (0 no effect, 100 complete control), approx. ten days
Source text: as §1, §2

[6] = system: velvetleaf (Abutilon theophrasti); experiment: Test A pre-/postemergence plant response; conditions: for Velvetleaf plant response rating: visual injury, 0 to 100 scale (0 no effect, 100 complete control), approx. ten days
Source text: as §1, §2

[7] = system: wheat (Triticum aestivum); experiment: Test A pre-/postemergence plant response; conditions: for Wheat plant response rating: visual injury, 0 to 100 scale (0 no effect, 100 complete control), approx. ten days
Source text: as §1, §2

[8] = system: barnyardgrass (Echinochloa crus-galli); experiment: Test B flooded paddy test; conditions: for Plant response rating, Flood, Barnyardgrass: 250 g ai/ha, flooded paddy test, visual rating on 0 to 100 scale (0 no effect, 100 complete control) after 13 to 15 days; for Plant response rating, Barnyardgrass: Flood (flooded paddy test), 13 to 15 days; for Barnyardgrass plant response rating: Flood, 31 g ai/ha, scale 0 to 100 (0 no effect, 100 complete control)
Method in brief: (§3)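 Visual scores run from 0 (no effect) to 100 (complete control), assigned by comparison with controls 13 to 15 days after treatment. Test compounds went straight into water standing 3 cm above the soil, around plants at the 2-leaf stage kept in a greenhouse.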

[9] = system: ducksalad (Heteranthera limosa); experiment: Test B flooded paddy test; conditions: for Plant response rating, Flood, Ducksalad: 250 g ai/ha, flooded paddy test, visual rating on 0 to 100 scale (0 no effect, 100 complete control) after 13 to 15 days; for Plant response rating, Ducksalad: Flood (flooded paddy test), 13 to 15 days; for Ducksalad plant response rating: Flood, 31 g ai/ha, scale 0 to 100 (0 no effect, 100 complete control)
Method in brief: as §3

rice (Oryza sativa) = experiment: Test B flooded paddy test; conditions: for Plant response rating, Flood, Rice: 250 g ai/ha, flooded paddy test, visual rating on 0 to 100 scale (0 no effect, 100 complete control) after 13 to 15 days; for Plant response rating, Rice: Flood (flooded paddy test), 13 to 15 days; for Rice plant response rating: Flood, 31 g ai/ha, scale 0 to 100 (0 no effect, 100 complete control)
Method in brief: as §3

[10] = system: umbrella sedge (Cyperus difformis); experiment: Test B flooded paddy test; conditions: for Plant response rating, Flood, Sedge, Umbrella: 250 g ai/ha, flooded paddy test, visual rating on 0 to 100 scale (0 no effect, 100 complete control) after 13 to 15 days; for Plant response rating, Sedge, Umbrella: Flood (flooded paddy test), 13 to 15 days; for Sedge, Umbrella plant response rating: Flood, 31 g ai/ha, scale 0 to 100 (0 no effect, 100 complete control)
Method in brief: as §3

[11] = Postemergence, 125 g ai/ha, 0 to 100 scale where 0 is no effect and 100 is complete control
[12] = Preemergence, 125 g ai/ha, 0 to 100 scale, 0 = no effect, 100 = complete control
[13] = Preemergence, 500 g ai/ha, 0 to 100 scale, 0 = no effect, 100 = complete control
[14] = 62 g ai/ha, scale of 0 to 100 where 0 is no effect and 100 is complete control
[15] = 125 g ai/ha, scale 0 to 100, 0 is no effect, 100 is complete control

CCc1ccc(-n2c(-c3cc(F)cc(F)c3)ncc(C(=O)C3=C(O)CCCC3=O)c2=O)cc1 [Compound 158]
75: Plant response rating, Ducksalad [9, 14]
80: Plant response rating, Barnyardgrass [1, 13] | Plant response rating, Foxtail, Giant [2, 13] | Plant response rating, Morningglory [4, 13] | Plant response rating, Velvetleaf [6, 13]
90: Plant response rating, Barnyardgrass [1, 11] | Barnyardgrass plant response rating ([1]; Postemergence, 500 g ai/ha) | Foxtail, Giant plant response rating ([2]; Postemergence, 500 g ai/ha)
0: Plant response rating, Corn (corn (Zea mays); [12]) | Plant response rating, Morningglory [4, 12] | Plant response rating, Wheat [7, 11] | Plant response rating, Wheat [7, 12]
85: Plant response rating, Flood, Rice (rice (Oryza sativa)) | Plant response rating, Sedge, Umbrella [10, 14]
50: Corn plant response rating (corn (Zea mays); Postemergence, 500 g ai/ha) | Plant response rating, Velvetleaf [6, 12] | Wheat plant response rating ([7]; Postemergence, 500 g ai/ha) | Ducksalad plant response rating [9]
10: Plant response rating, Corn (corn (Zea mays); [11]) | Plant response rating, Foxtail, Giant [2, 12] | Plant response rating, Wheat [7, 13]
40: Plant response rating, Rice (rice (Oryza sativa); [15])
30: Plant response rating, Rice (rice (Oryza sativa); [14])
20: Plant response rating, Barnyardgrass [1, 12] | Plant response rating, Corn (corn (Zea mays); [13]) | Plant response rating, Barnyardgrass [8, 14] | Plant response rating, Barnyardgrass [8, 15] | Barnyardgrass plant response rating [8] | Rice plant response rating (rice (Oryza sativa))
70: Plant response rating, Foxtail, Giant [2, 11] | Plant response rating, Crabgrass, Large [3, 11] | Plant response rating, Crabgrass, Large [3, 12] | Plant response rating, Morningglory [4, 11] | Sedge, Umbrella plant response rating [10]
100: Crabgrass, Large plant response rating ([3]; Postemergence, 500 g ai/ha) | Plant response rating, Crabgrass, Large [3, 13] | Morningglory plant response rating ([4]; Postemergence, 500 g ai/ha) | Plant response rating, Pigweed [5, 11] | Pigweed plant response rating ([5]; Postemergence, 500 g ai/ha) | Plant response rating, Pigweed [5, 12] | Plant response rating, Pigweed [5, 13] | Plant response rating, Velvetleaf [6, 11] | Velvetleaf plant response rating ([6]; Postemergence, 500 g ai/ha) | Plant response rating, Flood, Ducksalad [9] | Plant response rating, Ducksalad [9, 15] | Plant response rating, Flood, Sedge, Umbrella [10] | Plant response rating, Sedge, Umbrella [10, 15]
60: Plant response rating, Flood, Barnyardgrass [8]

O=C1CCCC(O)=C1C(=O)c1cnc(-c2cc(F)cc(F)c2)n(-c2ccccc2)c1=O [Compound 161]
30: Plant response rating, Barnyardgrass [1, 11] | Plant response rating, Flood, Barnyardgrass [8]
10: Plant response rating, Barnyardgrass [1, 12] | Corn plant response rating (corn (Zea mays); Postemergence, 500 g ai/ha)
0: Plant response rating, Corn (corn (Zea mays); [11]) | Plant response rating, Corn (corn (Zea mays); [12]) | Plant response rating, Corn (corn (Zea mays); [13]) | Plant response rating, Morningglory [4, 12] | Plant response rating, Wheat [7, 11] | Wheat plant response rating ([7]; Postemergence, 500 g ai/ha) | Plant response rating, Wheat [7, 12] | Plant response rating, Wheat [7, 13] | Plant response rating, Barnyardgrass [8, 14] | Plant response rating, Barnyardgrass [8, 15] | Barnyardgrass plant response rating [8] | Plant response rating, Ducksalad [9, 14] | Plant response rating, Ducksalad [9, 15] | Ducksalad plant response rating [9] | Plant response rating, Sedge, Umbrella [10, 14] | Plant response rating, Sedge, Umbrella [10, 15] | Sedge, Umbrella plant response rating [10]
80: Plant response rating, Foxtail, Giant [2, 13] | Plant response rating, Pigweed [5, 11] | Plant response rating, Flood, Ducksalad [9]
40: Plant response rating, Foxtail, Giant [2, 11] | Plant response rating, Morningglory [4, 13]
70: Plant response rating, Velvetleaf [6, 12]
60: Plant response rating, Crabgrass, Large [3, 11] | Plant response rating, Morningglory [4, 11] | Plant response rating, Flood, Sedge, Umbrella [10]
50: Plant response rating, Foxtail, Giant [2, 12] | Plant response rating, Crabgrass, Large [3, 12] | Plant response rating, Flood, Rice (rice (Oryza sativa)) | Plant response rating, Rice (rice (Oryza sativa); [14])
90: Barnyardgrass plant response rating ([1]; Postemergence, 500 g ai/ha) | Plant response rating, Barnyardgrass [1, 13] | Foxtail, Giant plant response rating ([2]; Postemergence, 500 g ai/ha) | Crabgrass, Large plant response rating ([3]; Postemergence, 500 g ai/ha) | Plant response rating, Crabgrass, Large [3, 13] | Plant response rating, Pigweed [5, 12] | Plant response rating, Velvetleaf [6, 13]
45: Plant response rating, Rice (rice (Oryza sativa); [15])
100: Morningglory plant response rating ([4]; Postemergence, 500 g ai/ha) | Pigweed plant response rating ([5]; Postemergence, 500 g ai/ha) | Plant response rating, Pigweed [5, 13] | Plant response rating, Velvetleaf [6, 11] | Velvetleaf plant response rating ([6]; Postemergence, 500 g ai/ha)
25: Rice plant response rating (rice (Oryza sativa))
